# Laboratory results from patent US20120122832A1, “METHOD OF MAKING CEFQUINOME PARTICLES” (priority 2009, published 2012).
# Counter-ions that a name gives are not always drawn.
# What was measured:
# [1] = Particle size distribution (PSD) of precipitated cefquinome sulfate particles by laser light scattering; type: physicochemical
# [2] = Particle size distribution of ethyl oleate formulations, Malvern Master Sizer with Hydro 2000G cell, Frauenhofer method; type: physicochemical; conditions: Table 1, Malvern Master Sizer
# Protocol: The particle size was determined with a Malvern Master Sizer GMAL 01 with the Hydro 2000G measuring cell according to Frauenhofer method.
# [3] = 1 minute stirring only in the measurement equipment
# [4] = 10 minutes stirring + 6 minutes of ultrasound
# [5] = 10 minutes stirring only in the measurement equipment
structure (smiles),measurement,setting,value
"CO/N=C(\C(=O)N[C@@H]1C(=O)N2C(C(=O)[O-])=C(C[n+]3cccc4c3CCCC4)CS[C@H]12)c1csc(N)n1 [Example 8, Cefquinome sulfate]",PSD D(50),[1]; [3],4.78 μm
same,PSD D(100),[1]; [3],239.9 μm
same,PSD DE(90),[1]; [3],66.97 μm
same,PSD D(50),[1]; [4],0.15 μm
same,PSD D(100),[1]; [4],5.01 μm
same,PSD DE(90),[1]; [4],1.98 μm
same,PSD D(50),[1]; [5],3.34 μm
same,PSD D(100),[1]; [5],11.48 μm
same,PSD DE(90),[1]; [5],5.95 μm
"CO/N=C(\C(=O)N[C@@H]1C(=O)N2C(C(=O)[O-])=C(C[n+]3cccc4c3CCCC4)CS[C@H]12)c1csc(N)n1 [prior art non micronized material, cefquinome sulphate]",D(0.50),[2],63.01 μm
same,D(0.90),[2],114.75 μm
same,D(100),[2],178.25 μm
